Measurements from US20240366550A1, “Drug for Treating Prostatitis or Benign Prostatic Hyperplasia (BPH)” (Beijing University of Chemical Technology, priority 2021, published 2024).
Read-outs that look alike come from different tables or passages of the source.

Assays:
clinical = details: male, human, po, 10 mg
Method: The drug concentration of SFA in vivo was determined in 9 cases of the 115 patients: the patients took 10 mg of SFA orally every day for 3 consecutive days.

[1] = tested on: chronic bacterial prostatitis (type-II prostatitis patients)
Method: (§1) General information: this group of patients included 117 cases, aged 18 to 52 years old, with an average age of 34.5 years, and their disease duration ranged from 2 months to 5 years.
(§2) Treatment method: 10 mg of SFA per day for 4 to 6 weeks.
Criteria for determining efficacy: the patients were scored according to the Chronic Prostatitis Score (NIH2CPSI) of the National Institutes of Health (NIH); the efficacy was determined based on the patient's symptoms, routine examination results of prostate fluid obtained by massage, and VB3 and EPS bacterial culture results obtained by the Meares-Stamey four-cup test.

prostatic hyperplasia = details: of 55 subjects in total
Method: as §1, §2

in vivo = details: po
[2] = number of patients relieved/total number of patients
[3] = of the remaining 95 cases taking the drug for 6 weeks

C[S+]([O-])CCCCN=C=S (centres unmarked) [SFA, Sulforaphane]
concentration at 6 h (clinical; blood): 50.6 to 182 ng/mL
concentration at 6 h (clinical; prostatic fluid obtained by massage): 13.5 to 22.8 ng/mL
concentration at 6 h (clinical; semen): 2.6 to 5.5 ng/mL
total effective rate ([1]; 12 patients infected with Escherichia coli, 11 with Streptococcus agalactiae, 8 with Streptococcus faecalis): 10000
total effective rate ([1]; 115 patients, 4 to 6 weeks): 88.7%
Urination symptom score ([1]; after treatment, 10 mg SFA per day for 4 to 6 weeks, before treatment 6.8 ± 1.1, P<0.01): 3.2 ± 1.1
Quality of life score ([1]; after treatment, 10 mg SFA per day for 4 to 6 weeks, before treatment 15.2 ± 4.6, P<0.01): 7.5 ± 1.3
Pain and discomfort score ([1]; after treatment, 10 mg SFA per day for 4 to 6 weeks, before treatment 15.3 ± 2.6, P<0.01): 10.3 ± 3.2
NIH-CPSI score ([1]; after treatment, 10 mg SFA per day for 4 to 6 weeks, before treatment 35.2 ± 3.3, P<0.01): 20.1 ± 5.6
White blood cells in prostatic fluid obtained by massage: Negative ([1]; after treatment, before treatment 0): 32 number of people
White blood cells in prostatic fluid obtained by massage: ++++ ([1]; after treatment, before treatment 14): 4 number of people
White blood cells in prostatic fluid obtained by massage: +++ ([1]; after treatment, before treatment 28): 9 number of people
White blood cells in prostatic fluid obtained by massage: + ([1]; after treatment, before treatment 31): 49 number of people
White blood cells in prostatic fluid obtained by massage: ++ ([1]; after treatment, before treatment 44): 21 number of people
Relieving rate, distending pain and discomfort in the suprapubic region [1, 2]: 82.9%
Relieving rate, ejaculation pain [1, 2]: 81.2%
Relieving rate, feeling of incomplete urination [1, 2]: 67.1%
Relieving rate, frequent urination [1, 2]: 80.2%
Relieving rate, labored urination [1, 2]: 72.6%
Relieving rate, penis pain [1, 2]: 77.3%
Relieving rate, perineum pain [1, 2]: 69.5%
Relieving rate, urgent urination [1, 2]: 81.3%
Relieving rate, white urine [1, 2]: 91.2%
cases cured within 4 weeks of taking the drug ([1]; of 115 patients who completed treatment, 10 mg per day): 20 cases
cases cured [1, 3]: 15 cases
cases effective [1, 3]: 23 cases
cases ineffective [1, 3]: 13 cases
cases markedly effective [1, 3]: 44 cases
Number of subjects, prostatic hyperplasia: Cured (prostatic hyperplasia): 52
Number of subjects, prostatic hyperplasia: Effective (prostatic hyperplasia): 2
Number of subjects, prostatic hyperplasia: Ineffective (prostatic hyperplasia): 1
bioavailability (in vivo): 90%
